In ChEMBL document CHEMBL2203181, “Microwave-assisted synthesis, molecular docking and antitubercular activity of 1,2,3,4-tetrahydropyrimidine-5-carbonitrile derivatives” (2012):

Key:
Type in all cases: functional
Set-up in all cases: scale not given: the % may be the effect or the level left
[1] = test system: Mycobacterium tuberculosis; experiment: Antitubercular activity against Mycobacterium tuberculosis H37Rv assessed as reduction in RLU at 500 ug/mL after 72 hrs by luciferase reporter phage assay
[2] = test system: Mycobacterium tuberculosis; experiment: Antitubercular activity against Mycobacterium tuberculosis H37Rv assessed as reduction in RLU at 100 ug/mL after 72 hrs by luciferase reporter phage assay
[3] = test system: Mycobacterium tuberculosis; experiment: Antitubercular activity against Mycobacterium tuberculosis H37Rv assessed as reduction in RLU at 0.5 ug/mL after 72 hrs by luciferase reporter phage assay
[4] = test system: Mycobacterium tuberculosis; experiment: Antitubercular activity against Mycobacterium tuberculosis H37Rv assessed as reduction in RLU at 2 ug/mL after 72 hrs by luciferase reporter phage assay

Structure (SMILES)	Activity [1] [%]	Activity [2] [%]	Activity [3] [%]	Activity [4] [%]
N#Cc1c(-c2ccc(F)cc2)[nH]c(=O)[nH]c1=O	44.2	46.49		
N#Cc1c(-c2cccc(Cl)c2)[nH]c(=O)[nH]c1=O	61.02	54.28		
COc1ccc(-c2[nH]c(=O)[nH]c(=O)c2C#N)cc1O	48.72	33.4		
N#Cc1c(-c2ccc(Cl)cc2)[nH]c(=S)[nH]c1=O	65.23	46.21		
N#Cc1c(-c2ccc(Br)cc2)[nH]c(=S)[nH]c1=O	82.04	75.73		
NNC(=O)c1ccncc1 [ISONIAZID]			98.42	
CO[C@H]1/C=C/O[C@@]2(C)Oc3c(C)c(O)c4c(O)c(c(/C=N/N5CCN(C)CC5)c(O)c4c3C2=O)NC(=O)/C(C)=C\C=C\[C@H](C)[C@H](O)[C@@H](C)[C@@H](O)[C@@H](C)[C@H](OC(C)=O)[C@@H]1C [RIFAMPIN]				82.58
